Assay results published in patent US20240156825A1, “USE OF SELECTIVE VEGFR2 AND FGFR1 INHIBITORS” (Fountain Therapeutics Inc., priority 2022, published 2024).
Where two headings read alike, the source gives them in different places. Values belong to the compound of their own block, whether it stands above or below them.

Legend:
FGFR1 [1] = target: T1, FGFR1 (Homo sapiens, UniProt P11362); conditions: cited from earlier work
any gene target = conditions: cited from earlier work
Zmpste24−/− mice = experiment: Mouse model of progeria: body fat (Echo MRI), lean muscle, body weight, intrascapular brown fat; format: in vivo; conditions: oral gavage QD5 for 56 days; for Body fat (Echo MRI) vs vehicle / Intrascapular brown fat mass (percent of body weight) vs vehicle: Brivanib alaninate 50, SU5402 25, Cediranib maleate 5, Regorafenib 10, infigratinib 5 mg/kg; for Body weight vs vehicle / Lean muscle vs vehicle: SU5402 25, Cediranib maleate 5, Regorafenib 10, infigratinib 5 mg/kg
Method: Zmpste24 mice, a progeria model mouse line, were dosed with either 50 mg/kg Brivanib alaninate for 56 days, 5 days on, 2 days off (QD5), or vehicle alone. The dose was administered via oral gavage as a suspension of 18% (w/v) PEG400 2% (w/v) Tween-80 in water . The vehicle alone was 18% (w/v) PEG400 2% (w/v) Tween-80 in water.
The body fat of the mice was measured by an Echo MRI throughout the treatment.
Samples of intrascapular brown adipose tissue from 15 week old mice treated with Brivanib Alaninate or vehicle for 56 days underwent Hematoxylin and Eosin (H&E) staining.
Zmpste24−/− mice, a progeria model mouse line, were dosed with either 25 mg/kg SU5402 for 56 days, 5 days on, 2 days off (QD5) or vehicle alone. The dose was administered via oral gavage as a suspension of 5% (w/v) DMSO 9% (w/v) PEG400 1% (w/v) Tween-80 in saline. The vehicle alone was 5% (w/v) DMSO 9% (w/v) PEG400 1% (w/v) Tween-80 in saline.
The body fat of the mice was measured by an Echo […]. Lean muscle and body weight were also measured.
The dose was administered via oral gavage as a suspension of 18% (w/v) PEG400 2% (w/v) Tween-80 in water . The vehicle alone was 18% (w/v) PEG400 2% (w/v) Tween-80 in water.
The body fat of the mice was measured by an Echo MRI. […] There was also no alteration of intrascapular brown adipose tissue mass (FIG. 5D).
The dose was administered via oral gavage as a suspension of 18% (w/v) PEG400 2% (w/v) Tween-80 in water. The vehicle alone was 18% (w/v) PEG400 2% (w/v) Tween-80 in water.
The body fat of the mice was measured by an Echo MM. […] There was also no alteration of intrascapular brown adipose tissue mass (FIG. 6D).
The body fat of the mice was measure by an Echo MRI. […] There was also no alteration of intrascapular brown adipose tissue mass (FIG. 7D). […]

VEGFR2 [2] = target: T2, VEGFR2 (Homo sapiens, UniProt P35968); conditions: read-out: IC50 VEGFR2; cited from earlier work
VEGFR2 and FGFR1 = experiment: Selection of compounds that selectively inhibit both VEGFR2 and FGFR1 (average relative IC50); format: biochemical;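 also: relative IC50 is the IC50 for VEGFR2 or FGFR1 divided by the next-lowest IC50 reported against any target gene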
VEGFR2 [3] = target: T2, VEGFR2; conditions: relative IC50: reported IC50 toward VEGFR2 divided by next lowest reported IC50 to any gene target
FGFR1 [4] = target: T1, FGFR1
[5] = reported IC50 to FGFR1, read-out: FGFR1 IC50_μM
[6] = lowest reported IC50 to any gene target, read-out: Min IC50_μM
[7] = average of VEGFR2 and FGFR1 relative IC50
[8] = relative IC50: reported IC50 toward FGFR1 divided by next lowest reported IC50 to any gene target

T2 sequence (P35968 20-1356, species assumed): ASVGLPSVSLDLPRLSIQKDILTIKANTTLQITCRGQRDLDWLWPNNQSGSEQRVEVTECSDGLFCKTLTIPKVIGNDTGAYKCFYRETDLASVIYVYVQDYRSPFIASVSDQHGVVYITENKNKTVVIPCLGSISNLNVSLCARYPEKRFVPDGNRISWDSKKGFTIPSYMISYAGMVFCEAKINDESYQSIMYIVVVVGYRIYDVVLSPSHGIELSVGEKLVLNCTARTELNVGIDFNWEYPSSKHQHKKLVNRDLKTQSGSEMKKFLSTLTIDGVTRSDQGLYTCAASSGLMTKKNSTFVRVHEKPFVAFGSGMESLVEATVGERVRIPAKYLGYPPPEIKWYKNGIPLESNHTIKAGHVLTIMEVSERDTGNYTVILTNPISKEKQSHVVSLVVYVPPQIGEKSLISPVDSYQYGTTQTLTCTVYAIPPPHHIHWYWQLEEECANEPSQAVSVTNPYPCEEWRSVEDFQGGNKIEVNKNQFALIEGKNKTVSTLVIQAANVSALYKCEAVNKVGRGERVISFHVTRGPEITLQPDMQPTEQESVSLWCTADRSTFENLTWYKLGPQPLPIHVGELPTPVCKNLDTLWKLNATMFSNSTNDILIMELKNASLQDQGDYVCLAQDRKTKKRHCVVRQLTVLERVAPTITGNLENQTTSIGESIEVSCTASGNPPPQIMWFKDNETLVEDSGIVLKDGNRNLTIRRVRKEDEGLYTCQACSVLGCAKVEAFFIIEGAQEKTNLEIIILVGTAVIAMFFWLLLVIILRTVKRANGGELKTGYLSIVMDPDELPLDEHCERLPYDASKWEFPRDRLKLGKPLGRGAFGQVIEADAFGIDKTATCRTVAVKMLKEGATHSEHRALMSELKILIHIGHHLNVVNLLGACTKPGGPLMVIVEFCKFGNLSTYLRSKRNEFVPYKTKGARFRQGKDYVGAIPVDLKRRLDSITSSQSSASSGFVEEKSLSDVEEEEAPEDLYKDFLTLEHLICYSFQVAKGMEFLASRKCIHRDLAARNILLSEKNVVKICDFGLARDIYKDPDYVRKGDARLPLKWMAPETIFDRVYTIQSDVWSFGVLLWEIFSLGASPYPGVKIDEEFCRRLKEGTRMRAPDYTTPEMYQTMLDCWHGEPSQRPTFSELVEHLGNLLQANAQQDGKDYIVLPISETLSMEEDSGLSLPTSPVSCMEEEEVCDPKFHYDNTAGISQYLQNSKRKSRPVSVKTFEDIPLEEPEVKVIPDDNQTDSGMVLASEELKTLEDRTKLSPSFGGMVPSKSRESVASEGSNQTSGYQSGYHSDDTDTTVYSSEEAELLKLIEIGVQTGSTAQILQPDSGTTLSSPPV
T1 sequence (P11362 22-822, species assumed): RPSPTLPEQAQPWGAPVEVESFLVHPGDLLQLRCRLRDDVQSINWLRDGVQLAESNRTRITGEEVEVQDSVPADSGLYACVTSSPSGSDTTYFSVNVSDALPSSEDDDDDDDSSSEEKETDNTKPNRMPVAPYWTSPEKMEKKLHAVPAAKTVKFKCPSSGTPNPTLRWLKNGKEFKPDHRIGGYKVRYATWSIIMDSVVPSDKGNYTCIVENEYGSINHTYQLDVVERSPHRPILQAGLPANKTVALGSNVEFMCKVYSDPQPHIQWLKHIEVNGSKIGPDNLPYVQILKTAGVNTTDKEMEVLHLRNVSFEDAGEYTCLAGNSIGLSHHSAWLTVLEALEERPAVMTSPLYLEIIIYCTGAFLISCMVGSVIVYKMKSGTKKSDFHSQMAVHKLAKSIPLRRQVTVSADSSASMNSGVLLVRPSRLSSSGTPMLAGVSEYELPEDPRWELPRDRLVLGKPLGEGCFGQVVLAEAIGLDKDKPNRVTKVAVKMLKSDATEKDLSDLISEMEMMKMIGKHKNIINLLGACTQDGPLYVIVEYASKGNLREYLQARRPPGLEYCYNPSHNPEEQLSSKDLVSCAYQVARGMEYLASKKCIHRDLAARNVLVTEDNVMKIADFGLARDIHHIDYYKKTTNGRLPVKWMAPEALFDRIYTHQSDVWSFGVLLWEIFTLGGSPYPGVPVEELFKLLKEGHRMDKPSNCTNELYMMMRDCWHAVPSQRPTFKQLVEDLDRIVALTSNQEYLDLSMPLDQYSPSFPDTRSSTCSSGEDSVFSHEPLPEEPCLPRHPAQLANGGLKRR

Compound: CC(C)(C)NC(=O)Nc1nc2nc(N)ncc2cc1-c1ccccc1 [compound 5329111]
IC50 (FGFR1 [1]; [5]): 3700 nM
IC50 (any gene target; [6]): 3710 nM

Compound: Cediranib maleate
Body fat (Echo MRI) vs vehicle (Zmpste24−/− mice): did not show an increase
Intrascapular brown fat mass (percent of body weight) vs vehicle (Zmpste24−/− mice): no alteration
Body weight vs vehicle (Zmpste24−/− mice): did not show an increase
Lean muscle vs vehicle (Zmpste24−/− mice): did not show an increase
IC50 (VEGFR2 [2]): 1 nM

Compound: C=CC(=O)Nc1ccc(CN(C(=O)Nc2c(Cl)c(OC)cc(OC)c2Cl)c2cc(Nc3ccc(N4CCN(C)CC4)cc3)ncn2)cc1 [compound 73707531]
IC50 (FGFR1 [1]; [5]): 1 nM
IC50 (any gene target; [6]): 1 nM

Compound: NC(=O)C1=C(c2ccc(Cl)cc2)c2ccccc2C1=O [compound 44330203]
IC50 (FGFR1 [1]; [5]): 5400 nM
IC50 (any gene target; [6]): 5400 nM

Compound: Cc1c[nH]c(/C=C2\C(=O)Nc3ccccc32)c1CCC(=O)O [compound 5289418, 3-[(3-(2-Carboxyethyl)-4-methylpyrrol-2-YL)methylene]-2-indolinone]
avg rIC50 (VEGFR2 and FGFR1): 1.1
Body fat (Echo MRI) vs vehicle (Zmpste24−/− mice): increase in body mass starting at 9 weeks of age
Intrascapular brown fat mass (percent of body weight) vs vehicle (Zmpste24−/− mice): made up for more of the body weight percent
Body weight vs vehicle (Zmpste24−/− mice): increase in body weight starting at 12 weeks of age
Lean muscle vs vehicle (Zmpste24−/− mice): increase in lean muscle starting at 15 weeks of age
VEGFR2, rIC50 (VEGFR2 [3]): 0.7
FGFR1, rIC50 (FGFR1 [4]): 1.5
IC50 (any gene target; read-out: Min IC50_μM): 30 nM
IC50 (any gene target; read-out: min IC50): 30 nM

Compound: COC(=O)C1=C(c2ccccc2)c2cc(C)ccc2C1=O.COC(=O)C1=C(c2ccccc2)c2ccc(C)cc2C1=O [compound 44330102]
IC50 (FGFR1 [1]; [5]): 6400 nM
IC50 (any gene target; [6]): 6400 nM

VEGFR2, rIC50 (VEGFR2 [3]): 1.2
FGFR1, rIC50 (FGFR1 [4]; [8]): 1.0
Compound: CONC(=O)c1cc(Nc2ncnn3cc(-c4nnc(C)o4)c(C(C)C)c23)c(F)cc1F [compound 10478569, 2,4-Difluoro-5-[5-isopropyl-6-(5-methyl-[1,3,4]oxadiazol-2-yl)-pyrrolo[2,1-f][1,2,4]triazin-4-ylamino]-N-methoxy-benzamide, reference compound]
avg rIC50 (VEGFR2 and FGFR1; [7]): 1.1
IC50 (FGFR1 [1]; [5]): 6.5 nM

Compound: CONC(=O)c1cc(Nc2ncnn3cc(-c4nnco4)c(C(C)C)c23)c(F)cc1F [compound 11464544, 2,4-Difluoro-5-(5-isopropyl-6-[1,3,4]oxadiazol-2-yl-pyrrolo[2,1-f][1,2,4]triazin-4-ylamino)-N-methoxy-benzamide, reference compound]
avg rIC50 (VEGFR2 and FGFR1; [7]): 1.2
VEGFR2, rIC50 (VEGFR2 [3]): 1.4
FGFR1, rIC50 (FGFR1 [4]; [8]): 1.0
IC50 (FGFR1 [1]; [5]): 54 nM
IC50 (any gene target; [6]): 54 nM
IC50 (any gene target; lowest reported IC50 to any gene target, read-out: min IC50): 54 nM

Compound: C=CC(=O)N1CC[C@H](n2cc(-c3cc4cc(C)cc(OC)c4s3)c3c(N)ncnc32)C1 [compound 138617501]
IC50 (FGFR1 [1]; Table 2, list of selective inhibitors of FGFR1, read-out: FGFR1 IC50_μM: reported IC50 to FGFR1): 0.3 nM
IC50 (any gene target; Table 2, lowest reported IC50 to any gene target, read-out: Min IC50_μM): 0.8 nM
